Experimental data reported in patent publication US4870183A, “Novel amino acid derivatives” (priority 1986, dated 1989).
Like-named read-outs stand apart in the source and are kept apart here.

How the values were obtained:
[1] = molecular target: T1, renin in human high renin plasma (Homo sapiens, UniProt P00797); test: Renin inhibitory effect in a human high renin plasma; format: biochemical
T1 construct: from tissue; host or cells: human high renin plasma
T1 sequence (P00797 67-406): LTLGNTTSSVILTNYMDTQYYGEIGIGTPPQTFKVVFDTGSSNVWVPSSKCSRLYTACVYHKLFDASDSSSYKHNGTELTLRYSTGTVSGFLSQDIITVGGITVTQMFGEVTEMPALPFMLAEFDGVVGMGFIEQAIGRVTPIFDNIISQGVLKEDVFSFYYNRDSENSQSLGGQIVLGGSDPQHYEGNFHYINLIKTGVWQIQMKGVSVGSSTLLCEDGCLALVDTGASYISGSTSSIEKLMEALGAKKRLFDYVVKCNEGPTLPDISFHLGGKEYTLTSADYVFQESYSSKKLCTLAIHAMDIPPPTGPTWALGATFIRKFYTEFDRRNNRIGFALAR
Method: Renin Inhibitory Effect in a Human High Renin Plasma
Two hundred μl of the mixture was placed on an ice bath, at 4° C., and remaining mixture (800 μl) was incubated for 60 minutes at 37° C. on a water bath. Two hundred μl of the incubated remaining mixture was chilled immediately on an ice bath, and the amount (A) of angiotensin I produced was determined by radioimmunoassay using renin riabead kit (DAINABOT).
The amount (B) of angiotensin I in the mixture placed on an ice bath at 4° C. was also determined by radioimmunoassay.
As a control, the same procedure as above was carried out by using 100 μl of dimethyl sulfoxide alone in place of 100 μl of dimethyl sulfoxide solution containing an amino acid compound of the present invention.
The net amount was estimated as the difference between A and B.
The inhibitory effect was calculated by the following equation. [formula]

human renin = molecular target: T2, human renin (Homo sapiens, UniProt P00797); test: Inhibitory effect on human renin-sheep renin substrate reaction system in vitro; format: biochemical
T2 sequence (P00797 67-406): T1 sequence (P00797 67-406)
Method: Inhibitory effect on human renin-sheep renin substrate reaction system in vitro
The mixture was incubated for 15 minutes on a water bath at 37° C., and the reaction mixture was allowed to stand for 5 minutes on a water bath at 100° C. to stop the reaction. After cooling, 200 μl of the solution was taken up and the amount of angiotensin I produced by the addition of renin was determined by radioimmunoassay using renin riabead kit (DAINABOT).
The inhibitory effect was calculated by the following equation.
As a control, the same procedure as above was carried out by using 50 μl of dimethyl sulfoxide alone in place of the 50 μl of dimethyl sulfoxide solution containing an amino acid compound of the present invention. [formula]

[2] = human high renin plasma, pH 7.0, 37° C., 60 minutes, read-out: IC50 molar concentration
[3] = human renin-sheep renin substrate system, pH 7.4, 37° C., 15 minutes, read-out: IC50 molar concentration

IC50 [1] [nM]	IC50 (human renin) [nM]	Compound	IC50 [1, 2] [nM]	IC50 (human renin; [3]) [nM]
130	19	O=C(N[C@@H](Cc1cnc[nH]1)C(=O)N[C@@H](CC1CCCCC1)C(O)C(=O)OC(CF)CF)C(Cc1ccccc1)Cc1ccccc1 (stereo partly drawn) [Compound P]	–	–
860	77	Cc1cccc(CC(Cc2cccc(C)c2C)C(=O)N[C@@H](Cc2c[nH]cn2)C(=O)N[C@@H](CC2CCCCC2)C(O)C(=O)OC(C)C)c1C (mixture of isomers) [Compound M, (2RS, 3S)-3-{N-[Bis(2,3-dimethylbenzyl)acetyl]-L-histidyl}amino-4-cyclohexyl-2-hydroxybutyric acid isopropyl ester]	–	–
3400	1800	CC(C)CNC(=O)C(O)[C@H](CC1CCCCC1)NC(=O)[C@H](Cc1c[nH]cn1)NC(=O)C(Cc1cccc2c1OCO2)Cc1cccc2c1OCO2 (mixture of isomers) [Compound Y, (2RS, 3S)-3-{N-[Bis(2,3-methylenedioxybenzyl)acetyl]-L-histidyl}amino-4-cyclohexyl-2-hydroxybutyric acid isobutyl amide]	–	–
430	49	CC(C)OC(=O)C(O)[C@H](CC1CCCCC1)NC(=O)[C@H](Cc1c[nH]cn1)NC(=O)C(Cc1cccc2ccccc12)Cc1cccc2ccccc12 (mixture of isomers) [Compound L, (2RS, 3S)-3-{N-[Bis(1-naphthylmethyl)acetyl]-L-histidyl}amino-4-cyclohexyl-2-hydroxybutyric acid isopropyl ester]	–	–
540	60	Cc1cccc(CC(Cc2cccc(C)c2)C(=O)N[C@@H](Cc2c[nH]cn2)C(=O)N[C@@H](CC2CCCCC2)C(O)C(=O)OC(C)C)c1 (mixture of isomers) [Compound Q, (2RS, 3S)-3-{N-[Bis(3-methylbenzyl)acetyl]-L-histidyl}amino-4-cyclohexyl-2-hydroxybutyric acid isopropyl ester]	–	–
2600	910	CC(C)OC(=O)C(O)[C@H](CC1CCCCC1)NC(=O)[C@H](Cc1c[nH]cn1)NC(=O)C(Cc1ccc2c(c1)OCO2)Cc1ccc2c(c1)OCO2 (mixture of isomers) [Compound V, (2RS, 3S)-3-{N-[Bis(3,4-methylenedioxybenzyl)acetyl]-L-histidyl}amino-4-cyclohexyl-2-hydroxybutyric acid isopropyl ester]	–	–
230	29	O=C(N[C@@H](Cc1c[nH]cn1)C(=O)N[C@@H](CC1CCCCC1)C(O)C(=O)OC1CCCC1)C(Cc1ccccc1F)Cc1ccccc1F (mixture of isomers) [Compound N, (2RS, 3S)-3-{N-[Bis(2-fluorobenzyl)acetyl]-L-histidyl}amino-4-cyclohexyl-2-hydroxybutyric acid cyclopentyl ester]	–	–
280	190	CC(C)OC(=O)C(O)[C@H](CC1CCCCC1)NC(=O)[C@H](Cc1c[nH]cn1)NC(=O)C(Cc1ccccc1C#N)Cc1ccccc1C#N (mixture of isomers) [Compound T, (2RS, 3S)-3-{N-[Bis(2-cyanobenzyl)acetyl]-L-histidyl}amino-4-cyclohexyl-2-hydroxybutyric acid isopropyl ester]	–	–
360	170	COc1ccccc1CC(Cc1ccccc1OC)C(=O)N[C@@H](Cc1c[nH]cn1)C(=O)N[C@@H](CC1CCCCC1)C(O)C(=O)OC(C)C (mixture of isomers) [Compound R, (2RS, 3S)-3-{N-[Bis(2-methoxybenzyl)acetyl]-L-histidyl}amino-4-cyclohexyl-2-hydroxybutyric acid isopropyl ester]	–	–
280	58	Cc1ccccc1CC(Cc1ccccc1C)C(=O)N[C@@H](Cc1c[nH]cn1)C(=O)N[C@@H](CC1CCCCC1)C(O)C(=O)OC(C)C (mixture of isomers) [Compound W, (2RS, 3S)-3-{N-[Bis(2-methylbenzyl)-acetyl]-L-histidyl}amino-4-cyclohexyl-2-hydroxybutyric acid isopropyl ester]	–	–

Continued, compound first:

Compound	IC50 [1] [nM]	IC50 (human renin) [nM]	IC50 [1, 2] [nM]	IC50 (human renin; [3]) [nM]
CC(C)OC(=O)C(O)[C@H](CC1CCCCC1)NC(=O)[C@H](Cc1c[nH]cn1)NC(=O)C(Cc1ccc(F)cc1)Cc1ccc(F)cc1 (mixture of isomers) [Compound O, (2RS, 3S)-3-{N-[Bis(4-fouorobenzyl)acetyl]-L-histidyl}amino-4-cyclohexyl-2-hydroxybutyric acid isopropyl ester]	–	–	1200	68
(2RS, 3)-3-{N-[Bis(2-fluorobenzyl)acetyl]-L-histidyl}amino-4-cyclohexyl ester [Compound S]	–	–	430	62
CC(C)OC(=O)C(O)[C@H](CC1CCCCC1)NC(=O)[C@H](Cc1c[nH]cn1)NC(=O)C(Cc1ccccc1Br)Cc1ccccc1Br (mixture of isomers) [Compound I, (2RS, 3S)-3-{N-[Bis(2-bromobenzyl)acetyl]-L-histidyl}amino-4-cyclohexyl-2-hydroxybutyric acid isopropyl ester]	430	18	–	–
CC(C)OC(=O)C(O)[C@H](CC1CCCCC1)NC(=O)[C@H](Cc1c[nH]cn1)NC(=O)C(Cc1ccccc1O)Cc1ccccc1O (stereo partly drawn) [Compound C, (2RS 3S)-3-{N-[Bis(2-hydroxybenzyl)acetyl]-L-histidyl}amino-4-cyclohexyl-2-hydroxybutyric acid isopropyl ester]	–	–	400	180
CC(C)OC(=O)C(O)[C@H](CC1CCCCC1)NC(=O)[C@H](Cc1c[nH]cn1)NC(=O)C(Cc1ccc(Cl)cc1)Cc1ccc(Cl)cc1 (mixture of isomers) [Compound J, (2RS, 3S)-3-{N-[Bis(4-chlorobenzyl)acetyl]-L-histidyl}amino-4-cyclohexyl-2-hydroxybutyric acid isopropyl ester]	5900	470	–	–
CC(C)OC(=O)C(O)[C@H](CC1CCCCC1)NC(=O)[C@H](Cc1c[nH]cn1)NC(=O)C(Cc1ccccc1)Cc1ccccc1 (mixture of isomers) [Compound E, (2RS, 3S)-3-[N-(dibenzylacetyl)-L-histidyl}amino-4-cyclohexyl-2-hydroxybutyric acid isopropyl ester]	260	52	–	–
CC(C)OC(=O)C(O)[C@H](CC1CCCCC1)NC(=O)[C@H](Cc1c[nH]cn1)NC(=O)C(Cc1cccc(F)c1)Cc1cccc(F)c1 (mixture of isomers) [Compound D, (2RS, 3S)-3-{N-[Bis(3-fluorobenzyl)acetyl]-L-histidyl}amino-4-cyclohexyl-2-hydroxybutyric acid isopropyl ester]	250	18	–	–
(2RS, 3S)-3-{N-[Bis(2-chlorobenzyl)acetyl]-L-histidyl}amino-4-cyclohexyl-2-hydroxybutyric acid butyric acid isopropyl ester [Compound U]	–	–	430	63
O=C(N[C@@H](Cc1c[nH]cn1)C(=O)N[C@@H](CC1CCCCC1)C(O)C(=O)OC1CCCC1)C(Cc1ccccc1)Cc1ccccc1 (mixture of isomers) [Compound K, (2RS, 3S)-3-[N-(dibenzylacetyl)-L-histidyl]amino-4-cyclohexyl-2-hydroxybutyric acid cyclopentyl ester]	280	18	–	–
Cc1cccc(C)c1CC(Cc1c(C)cccc1C)C(=O)N[C@@H](Cc1c[nH]cn1)C(=O)N[C@@H](CC1CCCCC1)C(O)C(=O)OC(C)C (mixture of isomers) [Compound G, (2RS, 3S)-3-{N-[Bis(2,6-dimethylbenzyl)acetyl]-L-histidyl}amino-4-cyclohexyl-2-hydroxybutyric acid isopropyl ester]	3300	900	–	–
CC(C)OC(=O)C(O)[C@H](CC1CCCCC1)NC(=O)[C@H](Cc1c[nH]cn1)NC(=O)C(Cc1ccccc1C(F)(F)F)Cc1ccccc1C(F)(F)F (mixture of isomers) [Compound B, (2RS, 3S)-3-{N-[Bis(2-trifluoromethylbenzyl)acetyl]-L-histidyl}amino-4-cyclohexyl-2-hydroxybutyric acid isopropyl ester]	1200	120	–	–
